Reference: a compilation of properties of binary mixtures (doi:10.1016/j.molliq.2020.113457)

Assay: xn = mol fraction of the nth substance listed
Details: 101 kPa

C=CC(=O)OC + CCCC[n+]1ccn(C)c1.F[B-](F)(F)F
Details | speed of sound [m/s] | viscosity [mPa·s]
293.15 K, x2 = 0 | 1204.7 | 0.502
293.15 K, x2 = 0.0694 | 1238.9 | 0.966
293.15 K, x2 = 0.1889 | 1296 | 3.853
293.15 K, x2 = 0.239 | 1318.8 | 6.24
293.15 K, x2 = 0.3354 | 1360.5 | 12.75
293.15 K, x2 = 0.4317 | 1399.7 | 21.82
293.15 K, x2 = 0.5005 | 1426 | 29.86
293.15 K, x2 = 0.5693 | 1451 | 39.21
293.15 K, x2 = 0.6532 | 1479.7 | 52.4
293.15 K, x2 = 0.737 | 1506.4 | 67.4
293.15 K, x2 = 0.7927 | 1523 | 78.5
293.15 K, x2 = 0.8484 | 1538.7 | 90.5
298.15 K, x2 = 0.0694 | 1218.7 | 0.725
298.15 K, x2 = 0.1387 | 1252.9 | 1.415
298.15 K, x2 = 0.1889 | 1276.8 | 2.577
298.15 K, x2 = 0.239 | 1300 | 4.295
298.15 K, x2 = 0.3354 | 1342.7 | 9.16
298.15 K, x2 = 0.4317 | 1382.7 | 16.07
298.15 K, x2 = 0.5005 | 1409.6 | 22.26
298.15 K, x2 = 0.5693 | 1435.3 | 29.5
298.15 K, x2 = 0.6532 | 1464.7 | 39.74
298.15 K, x2 = 0.737 | 1492.2 | 51.5
298.15 K, x2 = 0.7927 | 1509.3 | 60.2
298.15 K, x2 = 0.8484 | 1525.6 | 69.6
298.15 K, x2 = 0.9242 | 1546.4 | 83.5
303.15 K, x2 = 0 | 1162.3 | 0.428
303.15 K, x2 = 0.0694 | 1198.4 | 0.555
303.15 K, x2 = 0.1387 | 1233.4 | –
303.15 K, x2 = 0.1889 | 1257.7 | 1.493
303.15 K, x2 = 0.239 | 1281.1 | 2.654
303.15 K, x2 = 0.5005 | 1393.8 | 16.05
303.15 K, x2 = 0.5693 | 1420.5 | 21.63
303.15 K, x2 = 0.6532 | 1451.2 | 29.58
303.15 K, x2 = 0.737 | 1479.5 | 38.8
303.15 K, x2 = 0.7927 | 1496.9 | 45.62
303.15 K, x2 = 0.8484 | 1514 | 53
303.15 K, x2 = 0.9242 | 1534.4 | 63.9
308.15 K, x2 = 0 | 1139.1 | 0.392
308.15 K, x2 = 0.0694 | 1176.1 | 0.448
308.15 K, x2 = 0.1387 | 1211.5 | –
308.15 K, x2 = 0.1889 | 1236.2 | –
308.15 K, x2 = 0.239 | 1260.5 | –
308.15 K, x2 = 0.3354 | 1305.3 | 3.796
308.15 K, x2 = 0.4317 | 1347.7 | 7.6
308.15 K, x2 = 0.5005 | 1376.1 | 11.15
308.15 K, x2 = 0.5693 | 1404.1 | 15.41
308.15 K, x2 = 0.6532 | 1435.8 | 21.55
308.15 K, x2 = 0.737 | 1465.1 | 28.73
308.15 K, x2 = 0.7927 | 1483.3 | 34.08
308.15 K, x2 = 0.9242 | 1521 | 48.5
313.15 K, x2 = 0.0694 | 1155.4 | 0.378
313.15 K, x2 = 0.1889 | 1216.6 | –
313.15 K, x2 = 0.3354 | 1286.1 | 2.165
313.15 K, x2 = 0.4317 | 1329.6 | 5.02
313.15 K, x2 = 0.5005 | 1359.4 | 7.79
313.15 K, x2 = 0.5693 | 1388.1 | 11.15
313.15 K, x2 = 0.6532 | 1420.6 | 16.05
313.15 K, x2 = 0.737 | 1452.4 | 21.85
313.15 K, x2 = 0.7927 | 1471.1 | 26.2
313.15 K, x2 = 0.8484 | 1488.1 | 30.93
313.15 K, x2 = 0.9242 | 1510.3 | 38.01
318.15 K, x2 = 0.0694 | 1134.5 | 0.355
318.15 K, x2 = 0.1387 | 1170.8 | –
318.15 K, x2 = 0.1889 | 1195.7 | –
318.15 K, x2 = 0.239 | 1220 | –
318.15 K, x2 = 0.4317 | 1310.6 | 3.27
318.15 K, x2 = 0.5005 | 1341.6 | 5.53
318.15 K, x2 = 0.5693 | 1371.6 | 8.34
318.15 K, x2 = 0.737 | 1437.5 | 17.48
318.15 K, x2 = 0.7927 | 1457.2 | 21.23
318.15 K, x2 = 0.8484 | 1475.3 | 25.34

CCCC[n+]1ccn(C)c1.F[B-](F)(F)F + C=CC(=O)OC
x1 = 1
Details | speed of sound [m/s] | viscosity [mPa·s]
293.15 K | 1576.9 | 127.6
298.15 K | 1565.8 | 98.9
308.15 K | 1542.7 | 58.4
318.15 K | 1518 | 38.72
